Source: article PMC4627800, “Allelic Variation of Cytochrome P450s Drives Resistance to Bednet Insecticides in a Major Malaria Vector” (PLoS Genetics, 2015)
Read-outs that look alike come from different tables or passages of the source. Marks after values point to notes of the source that are not given here.

What was measured:
BENCYP6P9b = BENCYP6P9b (Anopheles funestus, UniProt A0A0S1S7Y0); test: Pyrethroid depletion (metabolism) assay with recombinant enzyme; assay type: biochemical; conditions: 20μM insecticide, 1 hour, vs -NADPH
Description: (§7) To establish whether allelic variation in CYP6P9a and CYP6P9b impact their metabolic activities toward insecticides, pyrethroids were screened with the recombinant enzymes from these genes. […] Membrane expressing recombinant CYP6P9a/-b and AgCPR, and reconstituted cytochrome b5 were added to the side of the tube and pre-incubated for 5 minutes at 30°C, with shaking at 1,200 rpm to activate the membrane. 20μM of test insecticide was then added into the final volume of 0.2ml (~2.5% v/v methanol), and reaction started by vortexing at 1,200 rpm and 30°C for 1 hour. Reactions were quenched with 0.1ml ice-cold methanol and incubated for 5 more minutes. Tubes were then centrifuged at 16,000 rpm and 4°C for 15 minutes, and 150μl of supernatant transferred into HPLC vials for analysis. Reactions were carried out in triplicates with experimental samples (+NADPH) and negative controls (-NADPH). 100μl of sample was loaded onto an isocratic mobile phase (90:10 v/v methanol to water) with a flow rate of 1ml/min, monitoring wavelength of 226nm and peaks separated with a 250mm C18 column (Acclaim 120, Dionex) on Agilent 1260 Infinity at 23°C. Enzyme activity was calculated as percentage depletion (the difference in the amount of insecticide(s) remaining in the +NADPH tubes compared with the–NADPH) and a t-test used for statistical analysis.

UGANCYP6P9b [1] = target: T1, UGANCYP6P9b (Anopheles funestus, UniProt A0A0S1S7Y0); test: Steady-state kinetics of pyrethroid metabolism; assay type: biochemical
Description: (§1) Reactions were performed in triplicates both for +NADPH (experimental tubes) and–NADPH (negative control). K m and V max were established from the plot of substrate concentrations against the initial velocities and fitting of the data to the Michaelis-Menten module using the least squares non-linear regression, as described in the GraphPad Prism 6.03 Software (GraphPad Inc., La Jolla, CA, USA).

FANGCYP6P9b [2] = target: T2, FANGCYP6P9b (Anopheles funestus, UniProt A0A0S1RZ61); test: Pyrethroid depletion (metabolism) assay with recombinant enzyme; assay type: biochemical; conditions: 20μM insecticide, 1 hour, vs -NADPH
Description: as §7

[3] = system: transgenic flies over-expressing MALCYP6P9b; conditions: 2% permethrin paper
Description: (§2) Primers used for this PCR are given in S8 Table. PCR conditions, cloning techniques, construction of transgenic flies and expression of candidate genes was conducted as described in previous studies, with more details provided in S1 Text. For control group, flies with the same background as the UAS transgenic lines but devoid of the UAS construct with the candidate gene were crossed with the driver Actin5C-GAL4 line to generate Actin5C-GAL4-null flies.
(§3) These papers were then rolled and introduced into 45 cc plastic vials. The vials were then plugged with cotton wool soaked in 5% sucrose. 20–25 (2–4 days old, post-eclosion F1 females) were selected for the bioassays and introduced into the vials. Mortality plus knockdown was scored after 1 hr, 2 hrs, 3 hrs, 6 hrs, 12 hrs and 24 hrs post-exposure to the discriminating dose of the insecticides.

[4] = system: transgenic flies over-expressing FANGCYP6P9a; conditions: 2% permethrin paper
Description: as §2, §3

[5] = system: transgenic flies over-expressing FANGCYP6P9b; conditions: 2% permethrin paper
Description: as §2, §3

[6] = system: transgenic flies over-expressing MALCYP6P9a; conditions: 2% permethrin paper
Description: as §2, §3

UGANCYP6P9b [7] = target: T1, UGANCYP6P9b; test: Pyrethroid depletion (metabolism) assay with recombinant enzyme; assay type: biochemical; conditions: 20μM insecticide, 1 hour, vs -NADPH
Asn^384Ser_CYP6P9b = Asn^384Ser_CYP6P9b (Anopheles funestus, UniProt B5AII7, N384S); test: Kinetics of permethrin metabolism by CYP6P9b mutants; assay type: biochemical
Description: as §1
(§4) In addition, fluorescent probes were also screened to establish differences in the O-dealkylation activity of the mutants compared with the wild type enzyme. All in vitro and kinetic analyses were conducted as described above. However, as different mutants expressed with varying concentrations all assays were conducted within linear range, with the amount of enzyme and time which produced highest activities.

Asp^335Glu_CYP6P9b = Asp^335Glu_CYP6P9b (Anopheles funestus, UniProt B5AII7, D335E); test: as above; assay type: biochemical
Description: as §1, §4

Pro^401Ala_CYP6P9b = Pro^401Ala_CYP6P9b (Anopheles funestus, UniProt B5AII7, P401A); test: as above; assay type: biochemical
Description: as §1, §4

Val^109Ile_CYP6P9b = Val^109Ile_CYP6P9b (Anopheles funestus, UniProt B5AII7, V109I); test: as above; assay type: biochemical
Description: as §1, §4

FANGCYP6P9a [8] = target: T3, FANGCYP6P9a (Anopheles funestus, UniProt K7Z0P3); test: Pyrethroid depletion (metabolism) assay with recombinant enzyme; assay type: biochemical; conditions: 20μM insecticide, 1 hour, vs -NADPH
Description: (§8) Membrane expressing recombinant CYP6P9a/-b and AgCPR, and reconstituted cytochrome b5 were added to the side of the tube and pre-incubated for 5 minutes at 30°C, with shaking at 1,200 rpm to activate the membrane. 20μM of test insecticide was then added into the final volume of 0.2ml (~2.5% v/v methanol), and reaction started by vortexing at 1,200 rpm and 30°C for 1 hour. Reactions were quenched with 0.1ml ice-cold methanol and incubated for 5 more minutes. Tubes were then centrifuged at 16,000 rpm and 4°C for 15 minutes, and 150μl of supernatant transferred into HPLC vials for analysis. Reactions were carried out in triplicates with experimental samples (+NADPH) and negative controls (-NADPH). 100μl of sample was loaded onto an isocratic mobile phase (90:10 v/v methanol to water) with a flow rate of 1ml/min, monitoring wavelength of 226nm and peaks separated with a 250mm C18 column (Acclaim 120, Dionex) on Agilent 1260 Infinity at 23°C. Enzyme activity was calculated as percentage depletion (the difference in the amount of insecticide(s) remaining in the +NADPH tubes compared with the–NADPH) and a t-test used for statistical analysis.

FANGCYP6P9b [9] = target: T2, FANGCYP6P9b
Description: as §1

FANGCYP6P9a [10] = target: T3, FANGCYP6P9a
Description: as §1

MALCYP6P9a = MALCYP6P9a (Anopheles funestus, UniProt B5AII6); test: Pyrethroid depletion (metabolism) assay with recombinant enzyme; assay type: biochemical; conditions: 20μM insecticide, 1 hour, vs -NADPH
Description: as §8

CYP6M2 = system: CYP6M2; set-up: method as in ref [5] (S1 Text); conditions: cited from earlier work
BENCYP6P9a = BENCYP6P9a (Anopheles funestus, UniProt A0A0S1RZ75); test: Pyrethroid depletion (metabolism) assay with recombinant enzyme; assay type: biochemical; conditions: 20μM insecticide, 1 hour, vs -NADPH
Description: as §8

MALCYP6P9b = MALCYP6P9b (Anopheles funestus, UniProt B5AII7); test: as above; assay type: biochemical; conditions: 20μM insecticide, 1 hour, vs -NADPH
Description: as §8

[11] = system: Asp^335Glu mutant of MALCYP6P9b; conditions: 20μM insecticide
Description: (§5) To establish whether allelic variation in CYP6P9a and CYP6P9b impact their metabolic activities toward insecticides, pyrethroids were screened with the recombinant enzymes from these genes. […] Membrane expressing recombinant CYP6P9a/-b and AgCPR, and reconstituted cytochrome b5 were added to the side of the tube and pre-incubated for 5 minutes at 30°C, with shaking at 1,200 rpm to activate the membrane. 20μM of test insecticide was then added into the final volume of 0.2ml (~2.5% v/v methanol), and reaction started by vortexing at 1,200 rpm and 30°C for 1 hour. Reactions were quenched with 0.1ml ice-cold methanol and incubated for 5 more minutes. Tubes were then centrifuged at 16,000 rpm and 4°C for 15 minutes, and 150μl of supernatant transferred into HPLC vials for analysis. Reactions were carried out in triplicates with experimental samples (+NADPH) and negative controls (-NADPH). 100μl of sample was loaded onto an isocratic mobile phase (90:10 v/v methanol to water) with a flow rate of 1ml/min, monitoring wavelength of 226nm and peaks separated with a 250mm C18 column (Acclaim 120, Dionex) on Agilent 1260 Infinity at 23°C.
(§6) In addition, fluorescent probes were also screened to establish differences in the O-dealkylation activity of the mutants compared with the wild type enzyme. All in vitro and kinetic analyses were conducted as described above. […]

[12] = system: Val^109Ile mutant of MALCYP6P9b; conditions: 20μM insecticide
Description: as §5, §6

Question: Which results are given for CC1(C)C(C=C(Cl)Cl)C1C(=O)OCc1cccc(Oc2ccccc2)c1 (stereo not shown) [permethrin]?
Answer: Percentage depletion (BENCYP6P9b): 89.63±0.63 %; Kcat (UGANCYP6P9b [1]): 8.61±3.40^b min^-1; Kcat, fold higher than FANGCYP6P9b (UGANCYP6P9b [1]; UGANCYP6P9b vs FANGCYP6P9b): 2 fold; Percentage depletion (FANGCYP6P9b [2]): 13.7±4.23%; mortality ([3]; 12 hrs): < 30%; mortality ([3]; 24 hrs): ~ 30%; mortality ([4]; 2 hrs): 30%; mortality ([4]; 3 hrs): ~ 60%; mortality ([4]; 6 hrs): ~ 70%; mortality ([5]; 12 hrs): 55%; mortality ([5]; 24 hrs): ~ 60%; mortality ([6]; 2 hrs): less than 10%; mortality ([6]; 3 hrs): < 30%; mortality ([6]; 6 hrs): < 45%; Percentage depletion (UGANCYP6P9b [7]): 88.58±3.48 %; Km (Asn^384Ser_CYP6P9b): 17.9 ± 0.87 µM; Km of mutant, fold of Asp^335Glu mutant (Asn^384Ser_CYP6P9b): 4 fold; Km of mutant, fold of wrMALCYP6P9b (Asn^384Ser_CYP6P9b): 2 fold; Kcat (Asn^384Ser_CYP6P9b; Asn^384Ser_CYP6P9b, mean ± S.E.M.): 0.87±0.08*** min^-1; Kcat of wrMALCYP6P9b, fold of mutant (Asn^384Ser_CYP6P9b; wrMALCYP6P9b vs Asn^384Ser): 9 fold; catalytic efficiency of wrMALCYP6P9b, fold of mutant (Asn^384Ser_CYP6P9b; wrMALCYP6P9b vs Asn^384Ser): 20 fold; Km (Asp^335Glu_CYP6P9b): 5.19 ± 1.89 µM; Kcat (Asp^335Glu_CYP6P9b; Asp^335Glu_CYP6P9b, mean ± S.E.M.): 0.98±0.12*** min^-1; Kcat of wrMALCYP6P9b, fold of mutant (Asp^335Glu_CYP6P9b; wrMALCYP6P9b vs Asp^335Glu): 8 fold; catalytic efficiency of wrMALCYP6P9b, fold of mutant (Asp^335Glu_CYP6P9b; wrMALCYP6P9b vs Asp^335Glu): 4 fold; Km (Pro^401Ala_CYP6P9b): 15.4 ± 6.5 µM; Kcat (Pro^401Ala_CYP6P9b; Pro^401Ala_CYP6P9b, mean ± S.E.M.): 4.21±0.96* min^-1; catalytic efficiency of wrMALCYP6P9b, fold of mutant (Pro^401Ala_CYP6P9b; wrMALCYP6P9b vs Pro^401Ala): 3 fold; Km (Val^109Ile_CYP6P9b): 20.5 ± 1.35 µM; Km of mutant, fold of Asp^335Glu mutant (Val^109Ile_CYP6P9b): 4 fold; Km of mutant, fold of wrMALCYP6P9b (Val^109Ile_CYP6P9b): 2 fold; Kcat (Val^109Ile_CYP6P9b; Val^109Ile_CYP6P9b, mean ± S.E.M.): 1.35±0.57** min^-1; Kcat of wrMALCYP6P9b, fold of mutant (Val^109Ile_CYP6P9b; wrMALCYP6P9b vs Val^109Ile): 6 fold; catalytic efficiency of wrMALCYP6P9b, fold of mutant (Val^109Ile_CYP6P9b; wrMALCYP6P9b vs Val^109Ile): 13 fold; Percentage depletion (FANGCYP6P9a [8]): 29.0±1.42%; Kcat (FANGCYP6P9b [9]): 0.075 ± 0.0225 s⁻¹; Km (FANGCYP6P9b [9]): 20.5 ± 8.31 µM; Kcat (FANGCYP6P9a [10]): 0.0825 ± 0.032 s⁻¹; Percentage depletion (MALCYP6P9a): 65.38±1.5 %; Km (CYP6M2; An. gambiae CYP6M2 ref [5] (S1 Text)): 12 µM; catalytic efficiency (CYP6M2; Anopheles gambiae CYP6M2 ref [5] (S1 Text)): ~ 0.5 min^-1µM^-1; Percentage depletion (BENCYP6P9a): 66.42±2.23 %; Percentage depletion (MALCYP6P9b): more than 90%; Percentage depletion (MALCYP6P9b; listed as Permethrin): 91.6±2.5 %; fold less depletion than wrMALCYP6P9b [11]: 2.15 fold; fold less depletion than wrMALCYP6P9b [12]: 2 fold
